The assay concerns the target T1, Dipeptidyl peptidase-IV (DPP-IV) (Homo sapiens, UniProt P27487).
T1 construct: gene DPP4
Nature of the assay: Fluorogenic enzyme inhibition assay (Cayman DPP-IV inhibitor screening kit […], Gly-Pro-AMC substrate). The assay is classed as biochemical.

T1 sequence (P27487 39-766): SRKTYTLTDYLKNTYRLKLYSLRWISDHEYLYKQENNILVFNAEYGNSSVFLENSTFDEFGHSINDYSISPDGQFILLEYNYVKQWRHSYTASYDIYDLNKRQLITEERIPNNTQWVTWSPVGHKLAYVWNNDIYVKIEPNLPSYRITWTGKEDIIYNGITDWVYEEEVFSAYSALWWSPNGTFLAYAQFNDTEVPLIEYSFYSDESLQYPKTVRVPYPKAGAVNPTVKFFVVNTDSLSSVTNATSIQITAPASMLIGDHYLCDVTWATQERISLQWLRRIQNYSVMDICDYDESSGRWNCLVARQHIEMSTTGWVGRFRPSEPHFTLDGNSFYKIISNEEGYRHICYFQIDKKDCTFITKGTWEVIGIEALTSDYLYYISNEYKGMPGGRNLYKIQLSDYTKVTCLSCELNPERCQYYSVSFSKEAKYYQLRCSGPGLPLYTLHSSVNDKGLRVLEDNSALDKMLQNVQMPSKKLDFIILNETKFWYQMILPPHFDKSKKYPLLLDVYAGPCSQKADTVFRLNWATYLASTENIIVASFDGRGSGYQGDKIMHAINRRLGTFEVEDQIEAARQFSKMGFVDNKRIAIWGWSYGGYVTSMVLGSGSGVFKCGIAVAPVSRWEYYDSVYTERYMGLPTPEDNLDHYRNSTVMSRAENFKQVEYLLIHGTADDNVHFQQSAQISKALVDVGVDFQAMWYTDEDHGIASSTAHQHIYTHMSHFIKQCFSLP

With `COc1cc(/C=C/C(=O)COC(=O)/C=C/c2ccc(O)c(OC)c2)ccc1O` [CA, Calebin A], the IC50 was 6.09 ± 0.41 µM.

For orientation: IC50 means the concentration at which inhibition is half-maximal.
